From patent US20210100777A1, “HEAT SHOCK PROTEIN (HSP) INHIBITION AND MONITORING EFFECTIVENESS THEREOF” (H. LEE MOFFITT CANCER CENTER AND RESEARCH INSTITUTE, INC., priority 2013, published 2021)

System: HSP70 isoform 1 (HSP71)
Assay: LC-MRM pharmacodynamic assay of HSP90 inhibition in melanoma cell lines
Format: cell-based
Settings: 300 nM, 0-48 hours; naïve, intrinsically resistant and acquired resistant cell lines
Experimental: Proteomics Sample Preparation. Proteins were extracted as described for Western Blotting and processed as described in (Remily-Wood et al., Proteomics Clin. App. 5:383-96 (2011)).
Liquid chromatography, multiple reaction monitoring mass (LC-MRM) spectrometry (LC MRM) analysis. LC-MRM was performed as described in (Remily-Wood et al., Proteomics Clin. App. 5:383-96 (2011)). Protein expression was determined using the ratio of peak area of the native peptide to corresponding internal standard; normalization of tissue results was performed using GAPDH to control for cellularity (Table 9). Data were then normalized to the pretreatment (cell lines) or vehicle controls (tissue) and plotted to show the changes in expression after drug treatment.

CC[C@@H](C)Nc1cc(C(=O)N[C@@H]2C[C@H]3CC[C@@H](C2)N3c2ccc(C(=O)C3CC3)cn2)c(C)cc1C(N)=O [XL888, 5-((R)-sec-butylamino)-N1-((1R,3s,5S)-8-(5-(cyclopropanecarbonyl)pyridin-2-yl)-8-azabicyclo[3.2.1]octan-3-yl)-2-methylterephthalamide]
expression of HSP70 isoform 1 (HSP71): robust time-dependent increases
